From patent publication US20220184071A1, “GEPOTIDACIN FOR USE IN THE TREATMENT OF BACTERIAL URINARY TRACT INFECTIONS” (GlaxoSmithKline Intellectual Property Development Limited, priority 2019, published 2022)
Values after ≈ are worked out from the molar mass of the structure shown.

Assays:
Bacteroides ovatus = assay: MIC by agar dilution, drug-resistant isolates; type: cell-based
Description: (§1) Antimicrobial activity was determined by agar dilution using the Clinical and Laboratory Standards Institute (CLSI) recommended procedure.
(§2) The compounds were tested in serial two-fold dilutions and the minimum inhibitory concentration (MIC) was determined as the lowest concentration of the compound that inhibited visible growth. Gepotidacin was tested against 333 gram-negative anaerobic and 203 gram-positive anaerobic isolates collected from clinical samples in North America and Europe from 2000 to 2017; the majority collected from 2013 to 2016.
(§3) Additional analysis was performed from the results of the study described in Method 1 above, to determine the in vitro activity of gepotidacin against gram-negative and gram-positive anaerobic organisms with resistance to ceftriaxone, clindamycin, imipenem, metronidazole, moxifloxacin and piperacillin/tazobactam.

Eubacterium limosum = assay: MIC by agar dilution, drug-resistant isolates; type: cell-based; conditions: moxifloxacin R; 2 isolates
Description: as §1, §2, §3

Bacteroides fragilis = assay: MIC by agar dilution, drug-resistant isolates; type: cell-based
Description: as §1, §2, §3

[1] = test system: Fusobacterium necrophorum; assay: MIC by agar dilution, drug-resistant isolates; type: cell-based; conditions: clindamycin R; 1 isolate
Description: as §1, §2, §3

[2] = test system: Bacteroides thetaiotaomicron; assay: MIC by agar dilution, drug-resistant isolates; type: cell-based
Description: as §1, §2, §3

Lactobacillus rhamnosus = assay: MIC by agar dilution, drug-resistant isolates; type: cell-based; conditions: imipenem R; 18 isolates
Description: as §1, §2, §3

Eubacterium nodatum = assay: MIC by agar dilution, drug-resistant isolates; type: cell-based; conditions: metronidazole R; 1 isolate
Description: as §1, §2, §3

Porphyromonas somerae = assay: MIC by agar dilution, drug-resistant isolates; type: cell-based; conditions: clindamycin R; 1 isolate
Description: as §1, §2, §3

[3] = test system: Prevotella melaninogenica; assay: MIC by agar dilution, drug-resistant isolates; type: cell-based; conditions: 1 isolate
Description: as §1, §2, §3

[4] = test system: Veillonella, non-speciated; assay: MIC by agar dilution, drug-resistant isolates; type: cell-based
Description: as §1, §2, §3

[5] = test system: Bifidobacterium adolescentis; assay: MIC by agar dilution, drug-resistant isolates; type: cell-based; conditions: moxifloxacin R; 1 isolate
Description: as §1, §2, §3

Bacteroides stercoris = assay: MIC by agar dilution, drug-resistant isolates; type: cell-based; conditions: ceftriaxone R, 2 isolates
Description: as §1, §2, §3

[6] = test system: Fusobacterium, non-speciated; assay: MIC by agar dilution, drug-resistant isolates; type: cell-based; conditions: 1 isolate
Description: as §1, §2, §3

[7] = test system: Eubacterium, non-speciated; assay: MIC by agar dilution, drug-resistant isolates; type: cell-based; conditions: 1 isolate
Description: as §1, §2, §3

Bacteroides uniformis = assay: MIC by agar dilution, drug-resistant isolates; type: cell-based
Description: as §1, §2, §3

Lactobacillus gasseri = assay: MIC by agar dilution, drug-resistant isolates; type: cell-based; conditions: clindamycin R; 2 isolates
Description: as §1, §2, §3

Prevotella bivia = assay: MIC by agar dilution, drug-resistant isolates; type: cell-based
Description: as §1, §2, §3

Bifidobacterium breve = assay: MIC by agar dilution, drug-resistant isolates; type: cell-based; conditions: moxifloxacin R; 1 isolate
Description: as §1, §2, §3

Bifidobacterium longum = assay: MIC by agar dilution, drug-resistant isolates; type: cell-based; conditions: moxifloxacin R; 1 isolate
Description: as §1, §2, §3

[8] = test system: Lactobacillus, non-speciated; assay: MIC by agar dilution, drug-resistant isolates; type: cell-based
Description: as §1, §2, §3

Bacteroides caccae = assay: MIC by agar dilution, drug-resistant isolates; type: cell-based
Description: as §1, §2, §3

Porphyromonas levii = assay: MIC by agar dilution, drug-resistant isolates; type: cell-based; conditions: metronidazole R; 1 isolate
Description: as §1, §2, §3

[9] = test system: Bifidobacterium pseudocatenulatum; assay: MIC by agar dilution, drug-resistant isolates; type: cell-based; conditions: clindamycin R; 1 isolate
Description: as §1, §2, §3

E. coli ALL = assay: Immunocompetent mouse kidney infection (pyelonephritis/UTI) model PK/PD; type: in vivo
Description: PK and PD studies using gepotidacin were conducted in murine (male CD-1 mice) thigh and kidney infections. The administered doses ranged from 1 to 200 mg/kg SC every 6 hours starting 1h post infection. Infected tissues were evaluated for bacterial burden at 24 h post infection (baseline controls at 1 h post infection).
Efficacy was determined against E. coli ALL, 997577, ATCC25922, IR5 and NCTC13441 (MICs of 1 to 4 μg/mL) in thigh-infected neutropenic (I−) mice and against E. coli ALL in kidney-infected immunocompetent (I+) and I− mice. The PopPK model was used to determine GEP exposures associated with efficacy. PK-PD analyses were conducted using Phoenix WinNonLin 6.3 (Pharsight). The change in login colony forming units (CFU) from baseline were correlated with free drug (f) AUC:MIC using an inhibitory model from the Phoenix library, and model parameter values for each isolate were used to calculate the plasma fAUC:MIC associated with stasis, 1- or 2-login reductions in CFU.
PD studies were conducted using thigh and/or kidney infection models in neutropenic or competent mice (N=5/group). Mice were infected with a bacterial suspension in log phase: 100 μL in the left thigh muscle or 50 μL in each of both kidneys (100 μl total). Final inocula across all isolates were 6.0 to 7.0 login CFU/mouse. Dose-ranging studies were conducted with 5 isolates (see Table 1). Starting 1 hr after infection, GEP was given SC (0.2 mL/mouse) at discrete doses of 1-200 mg/kg every 6 hours (q6) for a 24-hour period (4 doses in total). Mice were euthanized 24 hr after start of therapy (6 hr after the last dose), and infected thighs or kidneys were processed to determine viable bacterial counts (CFU). Baseline CFU were obtained from untreated mice at 1 hr post infection and growth control CFU from saline-treated mice at 24 hr.
NCA analyses were conducted with the simulated data.
PK-PD analysis was conducted using Phoenix WinNonLin 6.3 (Pharsight): • Log10 colony forming units (CFU) from each group were correlated with PK-PD parameters using several inhibitory models from the Phoenix library. • Model parameter values for each isolate were used to calculate the PK-PD parameter value associated with stasis, 1-log or 2-log reductions from baseline 1 h controls.

## O=c1ccc2ncc(=O)n3c2n1C[C@H]3CN1CCC(NCc2cc3c(cn2)OCCC3)CC1 [gepotidacin, (2R)-2-({4-[(3,4-dihydro-2H-pyrano[2,3-c]pyridin-6-ylmethyl)amino]-1-piperidinyl}methyl)-1,2-dihydro-3H,8H-2a,5,8a-triazaacenaphthylene-3,8-dione]
Bacteroides ovatus; ceftriaxone R, 8 isolates
  Gepotidacin MIC range: 1 to 4 µg/mL
Bacteroides ovatus; clindamycin R, 4 isolates
  Gepotidacin MIC range: 1 to 4 µg/mL
Bacteroides ovatus; moxifloxacin R, 2 isolates
  Gepotidacin MIC range: 1 to 4 µg/mL
Eubacterium limosum
  Gepotidacin MIC range: 0.25 to 0.5 µg/mL
Bacteroides fragilis; ceftriaxone R, 35 isolates
  Gepotidacin MIC range: 0.25 to 32 µg/mL
Bacteroides fragilis; clindamycin R, 22 isolates
  Gepotidacin MIC range: ≤0.015 to 32 µg/mL
Bacteroides fragilis; imipenem R, 1 isolate
  Gepotidacin MIC range: 0.5 µg/mL
Bacteroides fragilis; moxifloxacin R, 19 isolates
  Gepotidacin MIC range: 0.25 to 32 µg/mL
Bacteroides fragilis; pip/tazo R, 2 isolates
  Gepotidacin MIC range: 0.5 to 4 µg/mL
[1]
  Gepotidacin MIC range: 0.25 µg/mL
[2]; ceftriaxone R, 43 isolates
  Gepotidacin MIC range: 0.5 to 16 µg/mL
[2]; clindamycin R, 21 isolates
  Gepotidacin MIC range: 0.5 to 8 µg/mL
[2]; moxifloxacin R, 6 isolates
  Gepotidacin MIC range: 0.5 to 8 µg/mL
Lactobacillus rhamnosus
  Gepotidacin MIC range: 0.06 to 1 µg/mL
Eubacterium nodatum
  Gepotidacin MIC range: 0.125 µg/mL
Porphyromonas somerae
  Gepotidacin MIC range: 0.06 µg/mL
[3]; ceftriaxone R
  Gepotidacin MIC range: 0.25 µg/mL
[3]; clindamycin R
  Gepotidacin MIC range: 0.25 µg/mL
[4]; clindamycin R, 4 isolates
  Gepotidacin MIC range: 0.125 µg/mL
[4]; moxifloxacin R, 1 isolate
  Gepotidacin MIC range: ≤0.015 µg/mL
[5]
  Gepotidacin MIC range: 0.25 µg/mL
Bacteroides stercoris
  Gepotidacin MIC range: 0.12 to 1 µg/mL
[6]; ceftriaxone R
  Gepotidacin MIC range: 2 µg/mL
[6]; clindamycin R
  Gepotidacin MIC range: 2 µg/mL
[7]; ceftriaxone R
  Gepotidacin MIC range: 2 µg/mL
[7]; clindamycin R
  Gepotidacin MIC range: 2 µg/mL
[7]; moxifloxacin R
  Gepotidacin MIC range: 2 µg/mL
Bacteroides uniformis; ceftriaxone R, 3 isolates
  Gepotidacin MIC range: 1 to 2 µg/mL
Bacteroides uniformis; clindamycin R, 1 isolate
  Gepotidacin MIC range: 1 µg/mL
Bacteroides uniformis; moxifloxacin R, 1 isolate
  Gepotidacin MIC range: 1 µg/mL
Lactobacillus gasseri
  Gepotidacin MIC range: 0.5 to 1 µg/mL
Prevotella bivia; ceftriaxone R, 1 isolate
  Gepotidacin MIC range: 1 µg/mL
Prevotella bivia; clindamycin R, 2 isolates
  Gepotidacin MIC range: 0.5 to 4 µg/mL
Prevotella bivia; moxifloxacin R, 2 isolates
  Gepotidacin MIC range: 4 µg/mL
Bifidobacterium breve
  Gepotidacin MIC range: 0.5 µg/mL
Bifidobacterium longum
  Gepotidacin MIC range: 0.12 µg/mL
[8]; clindamycin R, 1 isolate
  Gepotidacin MIC range: 0.03 µg/mL
[8]; imipenem R, 9 isolates
  Gepotidacin MIC range: 0.03 to 1 µg/mL
Bacteroides caccae; Bacteroides caccae, 1 drug-resistant isolate
  MIC: 8 µg/mL (≈ 17.8 µM)
Bacteroides caccae; ceftriaxone R, 2 isolates
  Gepotidacin MIC range: 0.05 to 8 µg/mL
Bacteroides caccae; clindamycin R, 1 isolate
  Gepotidacin MIC range: 8 µg/mL
Bacteroides caccae; moxifloxacin R, 1 isolate
  Gepotidacin MIC range: 0.5 µg/mL
Porphyromonas levii
  Gepotidacin MIC range: ≤0.015 µg/mL
[9]
  Gepotidacin MIC range: 4 µg/mL
E. coli ALL; I+ (non-neutropenic) mice
  PK-PD target (fAUC/MIC) in immunocompetent vs neutropenic mice: reduced by approx. half
E. coli ALL; Strain ALL, Competent UTI
  Daily fAUC/MIC for 1-log Drop: 3.3
  Daily fAUC/MIC for 2-log Drop: 8.1
  Daily fAUC/MIC for Stasis: 0.7
